Experimental data published in patent US4401660A, “Ester derivatives of 5-O-mycaminosyl tylonolide and method of using same” (Eli Lilly and Company, priority 1981, dated 1983).

Tests used:
[1] = tested on: Pasteurella multocida 40G; experiment: MIC, broth-dilution microtiter test (Table III); type: cell-based; parameters: unit not given here
Method: (§1) The MIC's in Table II were determined by standard agar-dilution assays. The MIC's in Table III were obtained using a conventional broth-dilution microtiter test.

Mycoplasma gallisepticum = experiment: MIC, broth-dilution microtiter test (Table III); type: cell-based; parameters: unit not given here
Method: as §1

[2] = tested on: Pasteurella multocida 68C; experiment: MIC, broth-dilution microtiter test (Table III); type: cell-based; parameters: unit not given here
Method: as §1

Streptococcus sp. 80 = experiment: MIC, broth-dilution microtiter test (Table III); type: cell-based; parameters: unit not given here
Method: as §1

[3] = tested on: Pasteurella multocida 22A; experiment: MIC, broth-dilution microtiter test (Table III); type: cell-based; parameters: unit not given here
Method: as §1

Mycoplasma synoviae = experiment: MIC, broth-dilution microtiter test (Table III); type: cell-based; parameters: unit not given here
Method: as §1

[4] = tested on: Pasteurella haemolytica 22C; experiment: MIC, broth-dilution microtiter test (Table III); type: cell-based; parameters: unit not given here
Method: as §1

[5] = tested on: Pasteurella haemolytica 41D; experiment: MIC, broth-dilution microtiter test (Table III); type: cell-based; parameters: unit not given here
Method: as §1

Mycoplasma hyorhinis = experiment: MIC, broth-dilution microtiter test (Table III); type: cell-based; parameters: unit not given here
Method: as §1

Staphylococcus aureus = experiment: MIC, broth-dilution microtiter test (Table III); type: cell-based; parameters: unit not given here
Method: as §1

[6] = tested on: Pasteurella haemolytica 23C; experiment: MIC, broth-dilution microtiter test (Table III); type: cell-based; parameters: unit not given here
Method: as §1

[7] = tested on: Pasteurella multocida 17E; experiment: MIC, broth-dilution microtiter test (Table III); type: cell-based; parameters: unit not given here; details: bovine isolate
Method: as §1

[8] = tested on: Pasteurella multocida 60A; experiment: MIC, broth-dilution microtiter test (Table III); type: cell-based; parameters: unit not given here; details: avian isolate
Method: as §1

[9] = tested on: Staphylococcus aureus X1.1; experiment: MIC, standard agar-dilution assay (Table II); type: cell-based; parameters: unit not given here
Method: as §1

[10] = tested on: Streptococcus Group D 9960; experiment: MIC, standard agar-dilution assay (Table II); type: cell-based; parameters: unit not given here
Method: as §1

[11] = tested on: Staphylococcus aureus X400; experiment: MIC, standard agar-dilution assay (Table II); type: cell-based; parameters: unit not given here; details: Staphylococcus aureus X400, methicillin-resistant strain
Method: as §1

[12] = tested on: Streptococcus Group D X66; experiment: MIC, standard agar-dilution assay (Table II); type: cell-based; parameters: unit not given here
Method: as §1

[13] = tested on: Staphylococcus epidermidis EPI2; experiment: MIC, standard agar-dilution assay (Table II); type: cell-based; parameters: unit not given here
Method: as §1

[14] = tested on: Staphylococcus epidermidis EPI1; experiment: MIC, standard agar-dilution assay (Table II); type: cell-based; parameters: unit not given here
Method: as §1

[15] = tested on: Staphylococcus aureus S13E; experiment: MIC, standard agar-dilution assay (Table II); type: cell-based; parameters: unit not given here
Method: as §1

[16] = tested on: Staphylococcus aureus V41; experiment: MIC, standard agar-dilution assay (Table II); type: cell-based; parameters: unit not given here; details: Staphylococcus aureus V41, penicillin-resistant strain
Method: as §1

[17] = tested on: Streptococcus pyogenes C203; experiment: MIC, standard agar-dilution assay (Table II); type: cell-based; parameters: unit not given here
Method: as §1

[18] = tested on: Streptococcus pneumoniae Park I; experiment: MIC, standard agar-dilution assay (Table II); type: cell-based; parameters: unit not given here
Method: as §1

Pasteurella multocida = experiment: Treatment of Pasteurella infections in chicks (Table V); type: in vivo, one-day-old chicks; details: Pasteurella multocida, sc, 4 h; 30 mg/kg by subcutaneous injection one and four hours post challenge; read-out: Deaths in Treated Chicks/Number Treated (converted)
Method: Certain OMT ester derivatives are active in vivo against Pasteurella infections. Table V summarizes the results of tests in which the ester derivatives were administered to one-day-old chicks at a dosage level of 30 mg/kg by subcutaneous injection one and four hours post challenge of the chicks with Pasteurella multocida (0.1 ml of a 10^-3 dilution of a 20-hour tryptose broth culture of avian P. multocida given subcutaneously). All nonmedicated infected chicks (ten in each control group) died within 24 hours of Pasteurella challenge.

[19] = tested on: Haemophilus influenzae Holt; experiment: MIC, standard agar-dilution assay (Table II); type: cell-based; parameters: unit not given here; details: ampicillin-sensitive strain
Method: as §1

[20] = tested on: Haemophilus influenzae R252; experiment: MIC, standard agar-dilution assay (Table II); type: cell-based; parameters: unit not given here; details: Haemophilus influenzae R252, ampicillin-resistant strain
Method: as §1

| Compound | minimal inhibitory concentration (MIC) [1] | minimal inhibitory concentration (MIC) (Mycoplasma gallisepticum) | minimal inhibitory concentration (MIC) [2] | minimal inhibitory concentration (MIC) (Streptococcus sp. 80) | minimal inhibitory concentration (MIC) (Mycoplasma synoviae) | minimal inhibitory concentration (MIC) (Mycoplasma hyorhinis) | minimal inhibitory concentration (MIC) (Staphylococcus aureus) | minimal inhibitory concentration (MIC) [7] | minimal inhibitory concentration (MIC) [8] | minimal inhibitory concentration (MIC) [9] | minimal inhibitory concentration (MIC) [10] | minimal inhibitory concentration (MIC) [11] | minimal inhibitory concentration (MIC) [12] | minimal inhibitory concentration (MIC) [13] | minimal inhibitory concentration (MIC) [14] | minimal inhibitory concentration (MIC) [15] | minimal inhibitory concentration (MIC) [16] | minimal inhibitory concentration (MIC) [17] | minimal inhibitory concentration (MIC) [18] | mortality at 30 mg/kg (Pasteurella multocida) [%] | other results |
| --- | --- | --- | --- | --- | --- | --- | --- | --- | --- | --- | --- | --- | --- | --- | --- | --- | --- | --- | --- | --- | --- |
| CCC1OC(=O)CC(O)C(C)C(OC2OC(C)C(OC(C)=O)C(N(C)C)C2OC(C)=O)C(CC=O)CC(C)C(=O)C=CC(C)=CC1COC(=O)[C@H](O)c1ccccc1 (stereo partly drawn) [Compound 41, 2',4'-Di-O-acetyl-23-O-(D-mandeloyl)-OMT] | 3.12 | 0.195 | 3.12 | 0.195 | 0.39 | 12.5 | 0.78 | 3.12 | 3.12 | 0.125 | 0.25 | 0.5 | 0.125 | 0.25 | 0.25 | 0.25 | 0.25 | 0.06 | 0.03 | 100 | minimal inhibitory concentration (MIC) [3]: 3.12; minimal inhibitory concentration (MIC) [4]: 6.25; minimal inhibitory concentration (MIC) [5]: 6.25; minimal inhibitory concentration (MIC) [6]: 6.25 |
| CCC1OC(=O)CC(O)C(C)C(OC2OC(C)C(O)C(N(C)C)C2O)C(CC=O)CC(C)C(=O)C=CC(C)=CC1COC(=O)Cc1ccc(Cl)cc1 (stereo not shown) [Compound 32, 23-O-(p-Chlorophenylacetyl)-OMT] | 1.56 | < 0.05 | 0.39 | 0.097 | < 0.05 | 3.12 | 0.097 | 1.56 | 0.78 | 0.125 | 0.125 | 0.25 | 0.125 | 0.25 | 0.125 | 0.125 | 0.25 | 0.06 | 0.03 | 20 | minimal inhibitory concentration (MIC) [3]: 0.78; minimal inhibitory concentration (MIC) [4]: 1.56; minimal inhibitory concentration (MIC) [5]: 3.12; minimal inhibitory concentration (MIC) [6]: 3.12 |
| CCC1OC(=O)CC(O)C(C)C(OC2OC(C)C(OC(C)=O)C(N(C)C)C2OC(C)=O)C(CC=O)CC(C)C(=O)C=CC(C)=CC1COS(=O)(=O)c1ccc(NC(C)=O)cc1 (stereo not shown) [Compound 47, 23-O-(p-Acetamidobenzenesulfonyl)-2',4'-di-O-acetyl-OMT] | 12.5 | 0.195 | 3.12 | < 0.05 | 1.56 | 12.5 | 0.78 | 6.25 | 3.12 | 1 | 1 | 2 | 1 | 2 | 1 | 1 | 2 | 0.125 | 0.125 | 90 | minimal inhibitory concentration (MIC) [3]: 12.5; minimal inhibitory concentration (MIC) [4]: 12.5; minimal inhibitory concentration (MIC) [5]: 12.5; minimal inhibitory concentration (MIC) [6]: 12.5 |
| CCC1OC(=O)CC(O)C(C)C(OC2OC(C)C(OC(C)=O)C(N(C)C)C2OC(C)=O)C(CC=O)CC(C)C(=O)C=CC(C)=CC1COC(=O)Cc1cccnc1 (stereo not shown) [Compound 43, 2',4'-Di-O-acetyl-23O-(3-pyridylacetyl)-OMT] | 3.12 | 0.78 | 1.56 | 0.195 | < 0.05 | 0.78 | 0.39 | 3.12 | 3.12 | 0.25 | 0.25 | 0.5 | 0.25 | 0.5 | 0.25 | 0.25 | 0.5 | 0.06 | 0.06 | 80 | minimal inhibitory concentration (MIC) [3]: 3.12; minimal inhibitory concentration (MIC) [4]: 6.25; minimal inhibitory concentration (MIC) [5]: 3.12; minimal inhibitory concentration (MIC) [6]: 6.25 |
| CCC1OC(=O)CC(O)C(C)C(OC2OC(C)C(OC(C)=O)C(N(C)C)C2OC(C)=O)C(CC=O)CC(C)C(=O)C=CC(C)=CC1COC(=O)C(C)C (stereo not shown) [Compound 17] |  | < 0.05 |  | < 0.05 | < 0.05 | 0.39 | 0.195 | 1.56 | 3.12 | 1 | 1 | 1 | 1 | 1 | 0.5 | 1 | 1 | 1 | 0.25 | 100 | minimal inhibitory concentration (MIC) [19]: 4; minimal inhibitory concentration (MIC) [20]: 4 |
| CCCCC(=O)OCC1C=C(C)C=CC(=O)C(C)CC(CC=O)C(OC2OC(C)C(O)C(N(C)C)C2O)C(C)C(O)CC(=O)OC1CC (stereo not shown) [Compound 20] |  | < 0.05 |  | 0.39 | < 0.05 | 3.12 | 0.39 | 1.56 | 3.12 | 0.25 | 0.5 | 0.5 | 0.5 | 0.25 | 0.25 | 0.25 | 0.25 | 0.25 | 0.06 | 0 | minimal inhibitory concentration (MIC) [19]: 2; minimal inhibitory concentration (MIC) [20]: 2 |
